Test [1] concerns the target T1, Bombesin receptor subtype-3 (Mus musculus) (UniProt O54798).
T1 sequence (whole entry): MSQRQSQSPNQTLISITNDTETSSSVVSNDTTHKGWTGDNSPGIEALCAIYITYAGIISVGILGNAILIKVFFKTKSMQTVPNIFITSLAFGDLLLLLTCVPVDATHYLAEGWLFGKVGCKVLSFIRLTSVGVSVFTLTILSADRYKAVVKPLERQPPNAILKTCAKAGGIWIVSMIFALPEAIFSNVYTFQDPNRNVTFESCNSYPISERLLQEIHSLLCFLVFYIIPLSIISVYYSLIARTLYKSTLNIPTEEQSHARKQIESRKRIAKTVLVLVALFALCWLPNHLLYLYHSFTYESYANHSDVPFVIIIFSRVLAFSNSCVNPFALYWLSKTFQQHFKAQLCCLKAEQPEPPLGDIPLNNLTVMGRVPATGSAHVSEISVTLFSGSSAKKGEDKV
Put plainly: Agonist activity at mouse BRS3 expressed in HEK293 cells expressing aequorin measured for 30 secs by bioluminescence assay relative to [125I]-[D-Tyr6,beta-Ala11,Phe13,Nle14]-Bombesin(6-14). In kind it is functional, cell-based.

Test [2] has as its target T2, Bombesin receptor subtype-3 (Mus musculus, UniProt O54798).
T2 sequence (O54798 whole entry): T1 sequence (whole entry)
Nature of the test: Agonist activity at mouse BRS3 expressed in HEK293 cells expressing aequorin measured for 30 secs by bioluminescence assay. In kind it is functional, cell-based.

Test [3] has as its target T3, Bombesin receptor subtype-3 (Homo sapiens, UniProt P32247).
T3 sequence (P32247 whole entry): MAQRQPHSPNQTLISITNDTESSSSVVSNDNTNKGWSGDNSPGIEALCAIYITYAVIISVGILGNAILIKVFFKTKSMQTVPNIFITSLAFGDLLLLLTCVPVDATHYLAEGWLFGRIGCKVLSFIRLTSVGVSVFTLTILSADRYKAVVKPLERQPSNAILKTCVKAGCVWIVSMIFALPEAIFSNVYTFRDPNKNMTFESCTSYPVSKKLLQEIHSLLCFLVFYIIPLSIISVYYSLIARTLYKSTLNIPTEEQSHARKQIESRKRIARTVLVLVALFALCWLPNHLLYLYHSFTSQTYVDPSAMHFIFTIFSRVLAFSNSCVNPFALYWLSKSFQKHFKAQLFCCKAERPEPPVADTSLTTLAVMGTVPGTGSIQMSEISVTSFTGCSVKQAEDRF
Nature of the test: Agonist activity at human BRS3 expressed in HEK293 cells expressing aequorin measured for 30 secs by bioluminescence assay. The format is functional, cell-based.

For test [4], the target named is T3, Bombesin receptor subtype-3. Nature of the test: Displacement of [125I]-[D-Tyr6,beta-Ala11,Phe13,Nle14]-Bombesin(6-14) from human BRS3 expressed in CHO cells expressing NFAT after 2 hrs by liquid scintillation counting. The format is cell-based. On the technique in general: Loss of bound radioactivity is the signal in a displacement assay; it reports binding, not function.

Where only a bound is given, the exact number is not on record here.

A word on the EC50: it is the concentration needed to bring the measured effect to its halfway point. The term IC50 denotes the point on the concentration scale where inhibition reaches its midpoint. The low end stands for higher potency, the high end for lower potency. In the case of `Cc1ccc2c(c1C)N(S(=O)(=O)c1ccc(C(C)(C)C)cc1)Cc1ccc(Cl)nc1N2`, in test [1], the max activation was 105%. Moreover, the concentration for a half-maximal effect (EC50) in test [2] came out at 98 nM; in test [3], 38 nM. Moreover, the IC50 in test [4] amounted to 1.2 nM.
In the same order, the values of `Cc1ccc2c(n1)Nc1ccc(C)c(C)c1N(S(=O)(=O)c1ccc(C(C)(C)C)cc1)C2` are 107%, 232 nM, 131 nM and 10 nM.
In test [1], `CC(C)(C)c1ccc(S(=O)(=O)N2Cc3ccc(C(F)(F)F)nc3Nc3cccc(O)c32)cc1` came in with a max activation of 115%. Further, the values for the EC50 in test [2] and in test [3] were 209 nM and 88 nM, respectively. The same molecule registered a 50% inhibitory concentration (IC50) in test [4] of 2.2 nM.
`Cc1ccc2c(c1C)N(S(=O)(=O)c1csc(C(F)(F)F)c1)Cc1ccc(C(F)(F)F)nc1N2` had a max activation in test [1] of 103%. Further, the concentration giving a half-maximal response (EC50) stood at 96 nM in test [2] and 123 nM in test [3]. The molecule also gave an IC50 in test [4] of 14 nM.
As for `Cc1ccc2c(c1C)N(S(=O)(=O)c1ccc(C(C)(C)C#N)cc1)Cc1ccc(C(F)(F)F)nc1N2`, the max activation in test [1] was 83%. For the same molecule, the EC50 in test [2] came to 79 nM; in test [3] it was 60 nM. The molecule also had an IC50 in test [4] of 5.7 nM.
The molecule `Cc1ccc2c(c1C)N(S(=O)(=O)c1ccc(OC(F)(F)F)cc1)Cc1ccc(C(F)(F)F)nc1N2` came in with a max activation in test [1] of 103%. Besides, the values for the EC50 in test [2] and in test [3] were 80 nM and 43 nM, respectively. This molecule also gave an IC50 in test [4] of 3.3 nM.
`Cc1ccc2c(c1C)N(S(=O)(=O)c1ccc(C(C)(C)C)cc1)Cc1ccc(C#N)nc1N2`: the max activation in test [1] came out at 103%. Moreover, the half-maximal effective concentration (EC50) in test [2] and in test [3] was 50 nM each time. For the same molecule, the IC50 in test [4] came to 4.4 nM.
In turn, `Cc1ccc2c(n1)N(S(=O)(=O)c1ccc(C(C)(C)C)cc1)Cc1ccc(C(F)(F)F)nc1N2` showed a max activation in test [1] of 112%. Also, the half-maximal effective concentration (EC50) in test [2] is 171 nM; in test [3], 110 nM.
For `Cc1ccc2c(c1C)N(S(=O)(=O)c1ccc(C(F)(F)F)s1)Cc1ccc(C(F)(F)F)nc1N2`, in test [1], the max activation was determined as 90%. Besides, the EC50 in test [2] amounted to 154 nM; in test [3], 158 nM. In test [4], this molecule registered a concentration for half-maximal inhibition (IC50) of 10 nM.
For `Cc1ccc2c(c1C)N(S(=O)(=O)c1ccc(C(C)(C)C)cc1)Cc1cc(Cl)cnc1N2`, the 50% effective concentration (EC50) in test [2] and in test [3] was more than 10000 nM each time. The molecule further came in with a 50% inhibitory concentration (IC50) in test [4] of 430 nM.
With `CC(C)(C)c1ccc(S(=O)(=O)N2Cc3ccc(C(F)(F)F)nc3Nc3ccc4ncccc4c32)cc1`, the max activation in test [1] was 107%. Moreover, the results for the EC50 in test [2] and in test [3] were 129 nM and 108 nM, respectively. Moreover, the half-maximal inhibitory concentration (IC50) in test [4] stood at 0.7 nM.
The molecule `Cc1ccc2c(c1C)N(S(=O)(=O)c1ccc(S(C)(=O)=O)cc1)Cc1ccc(C(F)(F)F)nc1N2` yielded a max activation in test [1] of 46%. For the same molecule, the values for the concentration giving a half-maximal response (EC50) in test [2] and in test [3] were 561 nM and 543 nM, respectively. For the same molecule, the IC50 in test [4] is 73 nM.
With `Cc1ccc2c(c1C)Nc1nc(C(F)(F)F)ccc1CN2S(=O)(=O)c1ccc(C(C)(C)C)cc1`, the EC50 in test [2] and in test [3] was more than 10000 nM each time.
In the case of `Cc1ccc2c(c1C)N(S(=O)(=O)c1ccc(C(C)(C)F)cc1)Cc1ccc(C(F)(F)F)nc1N2`, in test [1], the max activation stood at 108%. Moreover, the results for the EC50 in test [2] and in test [3] were 200 nM and 69 nM, respectively. Moreover, the half-maximal inhibitory concentration (IC50) in test [4] was 5.7 nM.
As to `Cc1ccc2c(c1C)N(S(=O)(=O)c1ccc(C(C)(C)C)cc1)Cc1cc(F)c(Cl)nc1N2`, the max activation in test [1] came to 82%. Besides, the EC50 in test [2] was 371 nM; in test [3], 277 nM. This molecule also gave an IC50 in test [4] of 8.9 nM.
For `CC(C)(C)c1ccc(S(=O)(=O)N2Cc3ccc(C(F)(F)F)nc3Nc3ccccc32)cc1` the same measures were 98%, 161 nM, 110 nM and 5.5 nM.
In the same order, the values of `Cc1ccc2c(c1C)N(S(=O)(=O)c1ccc(C(F)(F)F)cc1)Cc1ccc(C(F)(F)F)nc1N2` are 100%, 79 nM, 154 nM and 6.8 nM.

The record behind these values is ChEMBL document CHEMBL2177008, “Discovery of benzodiazepine sulfonamide-based bombesin receptor subtype 3 agonists and their unusual chirality” (ACS Med Chem Lett, 2011).
